# Data from patent publication US8349553B2, “Jasmonate based assays for identifying compounds that selectively inhibit mitochondrial bound hexokinases” (Ramot at Tel Aviv University Ltd., priority 2007, dated 2013).
# Columns and labels:
# [1] = system: hexokinase; assay: Hexokinase activity, agent added directly to the coupled assay mixture; type: biochemical; settings: coupled pyruvate kinase/lactate dehydrogenase assay, 340 nm
# [2] = system: mitochondrial fraction of mouse brain; assay: Mitochondrial swelling assay, mouse brain; type: biochemical; settings: 1 mM
# Protocol: Freshly isolated mitochondrial fraction was washed with extraction buffer to remove EDTA and resuspended in swelling buffer (Mannitol 220 mM, Sucrose 70 mM, Tris, pH 7.2, 150 mM, KH2PO4, pH 7.2, 0.2 mM; 0.2 mg in 100 μL) freshly supplemented with potassium succinate, pH 7.2, 5 mM. Every component was sodium-free. Optical density was monitored at the wave length of 540 nm for 2-5 minutes before the addition of the examined reagents, e.g. methyl jasmonate, and for additional 20 minutes afterwards.
# In order to examine the consistency of the relationship between the ability of methyl jasmonate to detach bound hexokinase and mitochondrial damage, methyl jasmonate was tested in mouse brain in comparison to mouse liver. The comparison was performed due to known differences of mitochondrial hexokinase content between mouse brain vs. its liver. It is well established in the art that brain mitochondrial fraction is rich in bound hexokinase, while liver mitochondrial fraction is essentially devoid of it (Wilson, 1995). […] Mitochondrial fractions were incubated for either 10, 30 or 60 minutes at 37° C. The activity of unbound hexokinase was measured and compared to the activity of spontaneously (control) detached hexokinase. Consequently, the ability of methyl jasmonate to induce swelling in mitochondrial fraction isolated from mouse brain and liver was tested.
# [3] = system: mitochondria-bound hexokinase (mitochondrial fraction of Molt-4 cells); assay: Hexokinase detachment assay, mitochondrial fraction of Molt-4 cells; type: biochemical, human; settings: Molt-4 mitochondrial fraction; 30 minutes at 37° C.
# Protocol: Mitochondrial fraction was prepared by mechanical lysis and differential centrifugation. All stages were performed on ice. Cells or extracted tissues were washed with PBS and disrupted by homogenization in extraction buffer (Sucrose 250 mM, HEPES-NaOH 10 mM, pH 7.2) freshly supplemented with 0.1 mM EDTA and Protease Inhibitors cocktail (Sigma). For each gram of cells or tissue, 4 volumes of extraction buffer were applied. The homogenate volume was doubled with the extraction buffer, and tissue and cell debris as well as nuclei were pelleted by centrifugation of 1,000 g for 10 minutes. The supernatant was further spun at 13,000 g for 10 minutes twice. Endoplasmic reticulum layer was removed. The pellet, designated as the mitochondrial fraction, was suspended in the appropriate buffer, depending on the assay for which the mitochondrial fraction was prepared. Mitochondrial fractions were used immediately or stored at −196° C. […] Activity of hexokinase in the supernatant (i.e., activity of the detached hexokinase) was determined spectrophotometrically at 340 nm. […] Mitochondrial fractions isolated from different cancer cells, namely Molt-4 cells, BCL-1 leukemic cells and B16 melanoma tumors were incubated for 30 minutes at 37° C., and the activity of unbound hexokinase was measured and compared to the activity of spontaneously (control) detached hexokinase. […]
# [4] = system: CT26 cells; assay: Trypan blue exclusion test, CT26; type: cell-based, murine; settings: 3 mM, 1 hour
# Protocol: Cell death was determined by trypan blue exclusion. […] Alternatively, cytotoxicity was determined using hemacolor staining. […] In order to test the correlation between cellular ATP levels and the release of hexokinase from mitochondrial fraction different cancer cells, namely Molt-4 cells, BCL-1 leukemic cells and B16 melanoma tumors were exposed to various methyl jasmonate concentrations. […] CT26 and Molt-4 cells were then seeded in 24 well plates. CT26 cells were allowed to adhere over night. Cells were exposed to methyl jasmonate (MJ; 3 mM) for 1 hour. Trypan blue exclusion test was performed and cells were counted.
# [5] = biological target: T1, voltage-dependent anion channel (Rattus norvegicus, UniProt Q9Z2L0); assay: Voltage-dependent anion channel recording in planar lipid bilayer (channel alone); type: biochemical; settings: 3 mM; voltage stepped from 0 mV to −40 mV
# T1 construct: purified mitochondrial voltage-dependent anion channel reconstituted into a planar lipid bilayer; from tissue; host or cells: rat liver mitochondria
# T1 sequence (Q9Z2L0 whole entry): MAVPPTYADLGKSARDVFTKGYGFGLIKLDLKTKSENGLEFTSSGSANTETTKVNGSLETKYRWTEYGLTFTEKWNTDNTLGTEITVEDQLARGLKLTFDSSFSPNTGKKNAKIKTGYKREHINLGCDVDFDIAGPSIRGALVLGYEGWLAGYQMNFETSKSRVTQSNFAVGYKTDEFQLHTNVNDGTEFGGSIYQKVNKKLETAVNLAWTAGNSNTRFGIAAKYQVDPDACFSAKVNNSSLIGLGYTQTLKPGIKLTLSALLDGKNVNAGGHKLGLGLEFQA
# Protocol: Currents were measured with respect to the trans side of the membrane (ground).
structure (smiles),measurement,setting,value
CC/C=C\CC1C(=O)CCC1CC(=O)OC (centres unmarked) [methyl jasmonate],influence on hexokinase activity when added directly to the assay mixture,[1],"neither methyl jasmonate nor jasmonic acid added directly to the assay mixture, influence hexokinase activity"
same,mitochondrial swelling (optical density at 540 nm),[2],led to swelling in brain
same,detachment of hexokinase (activity of unbound hexokinase compared to control),[3],detached hexokinase from mitochondrial fraction isolated from the three different cancer cells
same,live/dead cells by Trypan blue exclusion,[4],still alive after 60 minutes
same,current passing through voltage-dependent anion channel (no hexokinase),[5],showed no effect on the current passing through voltage-dependent anion channel
